Test system: C57BL/6J macrophages
[1] = DMXAA 3 h vs unstimulated wild-type cells

In the case of `Cc1ccc2c(=O)c3cccc(CC(=O)O)c3oc2c1C` [DMXAA, 5,6-dimethylxanthenone-4-acetic acid], the “CYP1A2 Fold Change: BL/6” value is reported as −7.0 fold, the “CYP1A2 WT/KO” value is reported as 1.8 and the “CYP1B1 Fold Change: BL/6” value is reported as −44.3 fold. The “CYP1B1 WT/KO” value was 7.5, the “number of genes down-regulated ≧3-fold” value (3 h, vs medium-treated cells) was 26 genes and the “number of genes up-regulated ≧3-fold” value (3 h, vs medium-treated cells) was 110 genes. For the same compound, the “2310043N10RIK Fold Change: BL/6” value [1] was −7.1 fold, the “5830484A20RIK Fold Change: BL/6” value [1] was 5.7 fold and the “ABCB1 Fold Change: BL/6” value [1] was 7.9 fold. The “ABL1 Fold Change: BL/6” value [1] was −8.4 fold, the “ABLIM1 Fold Change: BL/6” value [1] was −9.7 fold and the “ACVR1B Fold Change: BL/6” value [1] was −4.5 fold. The “ADRB2 Fold Change: BL/6” value [1] was −3.2 fold, the “AFTIPHILIN Fold Change: BL/6” value [1] was 3.5 fold and the “AKAP12 Fold Change: BL/6” value [1] was 3.2 fold. For the same compound, the “AMPD3 Fold Change: BL/6” value [1] was −3.9 fold, the “AP2A2 Fold Change: BL/6” value [1] was −10.1 fold and the “APBB1IP Fold Change: BL/6” value [1] was −3.9 fold. The “APOBEC3F Fold Change: BL/6” value [1] was 3.5 fold, the “ARHGEF3 Fold Change: BL/6” value [1] was 4.2 fold and the “ARID3A Fold Change: BL/6” value [1] was −4.1 fold. For the same compound, the “ARL4C Fold Change: BL/6” value [1] was 5.7 fold, the “ASF1A Fold Change: BL/6” value [1] was 3.7 fold and the “ATRX Fold Change: BL/6” value [1] was −4.2 fold. For the same compound, the “B3GAT3 Fold Change: BL/6” value [1] was −9.0 fold, the “BACE1 Fold Change: BL/6” value [1] was −11.5 fold and the “BAMBI Fold Change: BL/6” value [1] was 4.0 fold. For the same compound, the “BCL2 Fold Change: BL/6” value [1] was −7.5 fold, the “BCL2L1 Fold Change: BL/6” value [1] was −14.0 fold and the “BHLHB2 Fold Change: BL/6” value [1] was −3.8 fold. For the same compound, the “BID Fold Change: BL/6” value [1] was 3.2 fold, the “C8ORF4 Fold Change: BL/6” value [1] was −35.4 fold and the “C9ORF26 Fold Change: BL/6” value [1] was 9.1 fold. The “CCL2 Fold Change: BL/6” value [1] was 125.6 fold, the “CCL3 Fold Change: BL/6” value [1] was 5.6 fold and the “CCL4 Fold Change: BL/6” value [1] was 15.1 fold. For the same compound, the “CCL5 Fold Change: BL/6” value [1] was 5.3 fold, the “CCL7 Fold Change: BL/6” value [1] was 9.6 fold and the “CCL13 Fold Change: BL/6” value [1] was 16.8 fold. The “CCND2 Fold Change: BL/6” value [1] was 6.4 fold, the “CCNE1 Fold Change: BL/6” value [1] was 3.2 fold and the “CCNF Fold Change: BL/6” value [1] was −10.6 fold. For the same compound, the “CCRN4L Fold Change: BL/6” value [1] was 5.7 fold, the “CD37 Fold Change: BL/6” value [1] was −5.2 fold and the “CD40 Fold Change: BL/6” value [1] was 10.3 fold. The “CD86 Fold Change: BL/6” value [1] was 11.1 fold, the “CD274 Fold Change: BL/6” value [1] was 6.0 fold and the “CDC6 Fold Change: BL/6” value [1] was 3.8 fold. The “CDC7 Fold Change: BL/6” value [1] was −3.4 fold, the “CDC37L1 Fold Change: BL/6” value [1] was −3.8 fold and the “CDKN1A Fold Change: BL/6” value [1] was 3.1 fold. For the same compound, the “CEBPB Fold Change: BL/6” value [1] was −3.3 fold, the “CITED2 Fold Change: BL/6” value [1] was 6.8 fold and the “CLCA1 Fold Change: BL/6” value [1] was −4.8 fold. For the same compound, the “CNR2 Fold Change: BL/6” value [1] was −9.1 fold, the “CREBBP Fold Change: BL/6” value [1] was −4.5 fold and the “CXCL10 Fold Change: BL/6” value [1] was 69.1 fold. For the same compound, the “DAXX Fold Change: BL/6” value [1] was 7.9 fold, the “DSCR1 Fold Change: BL/6” value [1] was 3.4 fold and the “FGD6 Fold Change: BL/6” value [1] was 3.0 fold. The “FGL2 Fold Change: BL/6” value [1] was 10.6 fold, the “GBP2 Fold Change: BL/6” value [1] was 4.8 fold and the “GBP4 Fold Change: BL/6” value [1] was 7.5 fold. For the same compound, the “GBP6 Fold Change: BL/6” value [1] was 10.8 fold, the “GYPC Fold Change: BL/6” value [1] was 5.9 fold and the “IFI16 Fold Change: BL/6” value [1] was 4.3 fold. For the same compound, the “IFI35 Fold Change: BL/6” value [1] was 3.6 fold, the “IFI203 Fold Change: BL/6” value [1] was 21.9 fold and the “IFI205 Fold Change: BL/6” value [1] was 6.4 fold. The “IFIH1 Fold Change: BL/6” value [1] was 10.1 fold, the “IFIT1 Fold Change: BL/6” value [1] was 33.5 fold and the “IFIT2 Fold Change: BL/6” value [1] was 27.1 fold. For the same compound, the “IFIT3 Fold Change: BL/6” value [1] was 32.2 fold, the “IFNA5 Fold Change: BL/6” value [1] was 32.4 fold and the “IFNA6 Fold Change: BL/6” value [1] was 77.7 fold. The “IFNB1 Fold Change: BL/6” value [1] was 194.1 fold, the “IFNG Fold Change: BL/6” value [1] was 46.5 fold and the “IGTP Fold Change: BL/6” value [1] was 13.7 fold. The “IIGP1 Fold Change: BL/6” value [1] was 21.9 fold, the “IL6 Fold Change: BL/6” value [1] was 564.6 fold and the “IL12B Fold Change: BL/6” value [1] was 4.4 fold. For the same compound, the “IL15 Fold Change: BL/6” value [1] was 7.2 fold, the “IL15RA Fold Change: BL/6” value [1] was 14.9 fold and the “IRF1 Fold Change: BL/6” value [1] was 6.9 fold. The “IRF2 Fold Change: BL/6” value [1] was 4.1 fold, the “IRGM Fold Change: BL/6” value [1] was 6.6 fold and the “ISG20 Fold Change: BL/6” value [1] was 20.9 fold. The “KATNA1 Fold Change: BL/6” value [1] was 3.2 fold, the “LGP2 Fold Change: BL/6” value [1] was 6.4 fold and the “LHX2 Fold Change: BL/6” value [1] was 92.1 fold. For the same compound, the “LOC129607 Fold Change: BL/6” value [1] was 58.9 fold, the “MAFK Fold Change: BL/6” value [1] was 4.7 fold and the “MARCH5 Fold Change: BL/6” value [1] was 4.7 fold. For the same compound, the “MOV10 Fold Change: BL/6” value [1] was 4.2 fold, the “MX1 Fold Change: BL/6” value [1] was 191.4 fold and the “MX2 Fold Change: BL/6” value [1] was 85.3 fold. For the same compound, the “NMI Fold Change: BL/6” value [1] was 4.5 fold, the “NP Fold Change: BL/6” value [1] was 4.1 fold and the “NT5C3 Fold Change: BL/6” value [1] was 6.4 fold. The “OAS1B Fold Change: BL/6” value [1] was 12.7 fold, the “OASL Fold Change: BL/6” value [1] was 35.6 fold and the “P4HA1 Fold Change: BL/6” value [1] was 4.3 fold. For the same compound, the “P8 Fold Change: BL/6” value [1] was 3.7 fold, the “PARP9 Fold Change: BL/6” value [1] was 4.0 fold and the “PELI1 Fold Change: BL/6” value [1] was 5.9 fold. The “PGF Fold Change: BL/6” value [1] was 25.3 fold, the “PLAU Fold Change: BL/6” value [1] was 3.9 fold and the “PPP1R15A Fold Change: BL/6” value [1] was 5.3 fold. The “PTX3 Fold Change: BL/6” value [1] was 5.3 fold, the “PVRL2 Fold Change: BL/6” value [1] was 6.4 fold and the “PVRL4 Fold Change: BL/6” value [1] was 9.0 fold. The “REL Fold Change: BL/6” value [1] was 3.1 fold, the “RGC32 Fold Change: BL/6” value [1] was 8.7 fold and the “RIPK2 Fold Change: BL/6” value [1] was 3.2 fold. The “RSAD2 Fold Change: BL/6” value [1] was 15.5 fold, the “SAP30 Fold Change: BL/6” value [1] was 3.9 fold and the “SAV1 Fold Change: BL/6” value [1] was 3.2 fold. The “SDC4 Fold Change: BL/6” value [1] was 3.9 fold, the “SECTM1 Fold Change: BL/6” value [1] was 17.7 fold and the “SLC7A2 Fold Change: BL/6” value [1] was 3.6 fold. The “SOAT1 Fold Change: BL/6” value [1] was 3.6 fold, the “SOCS1 Fold Change: BL/6” value [1] was 57.5 fold and the “STAT2 Fold Change: BL/6” value [1] was 3.9 fold. For the same compound, the “TGTP Fold Change: BL/6” value [1] was 60.2 fold, the “TLK2 Fold Change: BL/6” value [1] was 4.2 fold and the “TLR3 Fold Change: BL/6” value [1] was 8.8 fold. The “TMOD3 Fold Change: BL/6” value [1] was 3.4 fold, the “TNF Fold Change: BL/6” value [1] was 6.9 fold and the “TNFRSF11B Fold Change: BL/6” value [1] was 90.5 fold. The “TNFSF9 Fold Change: BL/6” value [1] was 5.1 fold, the “TOR1AIP1 Fold Change: BL/6” value [1] was 3.1 fold and the “TPST1 Fold Change: BL/6” value [1] was 6.7 fold. For the same compound, the “TREX1 Fold Change: BL/6” value [1] was 10.2 fold, the “TRIM21 Fold Change: BL/6” value [1] was 8.4 fold and the “TRIM25 Fold Change: BL/6” value [1] was 4.2 fold. For the same compound, the “TRIM34 Fold Change: BL/6” value [1] was 3.3 fold, the “USP18 Fold Change: BL/6” value [1] was 11.6 fold and the “VCAM1 Fold Change: BL/6” value [1] was 3.4 fold.

Reference: patent publication US8957108B2, “Use of 5,6-dimethylxanthenone-4-acetic acid as an antiviral agent” (University of Maryland, Baltimore, priority 2006, dated 2015)
